In the test the target is T1, 11β-HSD1 (Homo sapiens, UniProt P28845).
T1 construct: detecting cortisol generated from cortisterone by human liver microsomes; from tissue; host or cells: human liver microsomes
Nature of the test: In vitro inhibition of 11β-HSD1, HTRF detection of cortisol generated from cortisone by human liver microsomes. The format is biochemical. The settings on record: 1 hour at 37° C., pH 6.0, NADPH 200 μM, cortisone 80 nM, inhibition relative to carbenoxolone signal. The method, boiled down:
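Inhibition expressed against the carbenoxolone signal and fitted to IC50 curves. Readout: HTRF competition between microsomal cortisol and XL665-labelled cortisol for Eu-cryptate anti-cortisol antibody (typically 2 h), with emission ratio 665/615 calibrated to cortisol concentration.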
In general terms: Time-resolved FRET reads energy transfer from a long-lived donor to a nearby acceptor.

Read-outs that look alike come from different tables or passages of the source.

T1 sequence (P28845 whole entry): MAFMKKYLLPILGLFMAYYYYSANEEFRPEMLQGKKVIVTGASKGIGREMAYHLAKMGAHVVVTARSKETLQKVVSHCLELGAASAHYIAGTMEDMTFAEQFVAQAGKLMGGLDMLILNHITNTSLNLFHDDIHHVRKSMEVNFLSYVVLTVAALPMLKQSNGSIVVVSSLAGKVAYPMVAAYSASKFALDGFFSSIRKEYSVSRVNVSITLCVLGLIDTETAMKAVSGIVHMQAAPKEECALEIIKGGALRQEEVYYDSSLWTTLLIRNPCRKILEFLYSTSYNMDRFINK

The IC50 is the concentration that inhibits the measured activity by half. With `CC(C)(O)c1cccc(C(=O)N2CC[C@@]3(C)c4ccccc4C[C@@H]2C3(C)C)c1` [Example 317, [3-(1-Hydroxy-1-methyl-ethyl)-phenyl]-[(2R,6S)-6,11,11-trimethyl-1,2,5,6-tetrahydro-4H-2,6-methano-benzo[d]azocin-3-yl]-methanone], the IC50 (11β-HSD IC50 (nM)) stood at 217 nM.

Regarding `CC1(C)[C@H]2Cc3ccccc3[C@]1(C)CCN2C(=O)c1ccc(O)cc1` [Example 318, (4-Hydroxy-phenyl)-[(2R,6S)-6,11,11-trimethyl-1,2,5,6-tetrahydro-4H-2,6-methano-benzo[d]azocin-3-yl]-methanone], the IC50 (11β-HSD IC50 (nM)) came to 31 nM.

In the case of `CC1(C)[C@H]2Cc3ccccc3[C@]1(C)CCN2C(=O)c1cccc(O)c1` [Example 319, (3-Hydroxy-phenyl)-[(2R,6S)-6,11,11-trimethyl-1,2,5,6-tetrahydro-4H-2,6-methano-benzo[d]azocin-3-yl]-methanone], the IC50 (11β-HSD IC50 (nM)) was 446 nM.

Compound `CC1(C)[C@H]2Cc3ccccc3[C@]1(C)CCN2C(=O)c1cc(Cl)c(O)c(Cl)c1` [Example 320, (3,5-Dichloro-4-hydroxy-phenyl)-[(2R,6S)-6,11,11-trimethyl-1,2,5,6-tetrahydro-4H-2,6-methano-benzo[d]azocin-3-yl]-methanone] yielded an IC50 (11β-HSD IC50 (nM)) of 165 nM.

On to `COc1ccc2c(c1)C1CCN(C(=O)c3ccc4nc[nH]c4c3)C1C2` (stereo not shown) [Example 321, (3H-Benzoimidazol-5-yl)-(5-methoxy-3,3a,8,8a-tetrahydro-2H-1-aza-cyclopenta[a]inden-1-yl)-methanone], for which, under “read-out: 11β-HSD IC50”, the half-inhibitory concentration (IC50) was 1170 nM.

`CC12CC(Cc3ccccc31)N(C(=O)c1ccc3nc[nH]c3c1)C2` (stereo not shown) [Example 323, (3H-Benzoimidazol-5-yl)-(1-methyl-10-aza-tricyclo[7.2.1.0*2,7*]dodeca-2,4,6-trien-10-yl)-methanone]: for the setting “read-out: 11β-HSD IC50”, the half-maximal inhibitory concentration (IC50) stood at 620 nM.

Take `CC12CCCN(C(=O)c3ccc4nc[nH]c4c3)C(Cc3ccccc31)C2` (stereo not shown) [Example 324, (3H-Benzoimidazol-5-yl)-(1-methyl-10-aza-tricyclo[7.4.1.0*2,7*]tetradeca-2,4,6-trien-10-yl)-methanone]: the IC50 (read-out: 11β-HSD IC50) was 121 nM.

`CC1C2c3ccc(O)cc3CC2N(C(=O)c2ccc3nc[nH]c3c2)CC1(C)C` (stereo not shown) [Example 330, (3H-Benzoimidazol-5-yl)-(7-hydroxy-3,3,4-trimethyl-2,3,4,4a,9,9a-hexahydro-indeno[2,1-b]pyridin-1-yl)-methanone]: for the setting “read-out: 11β-HSD IC50”, the IC50 was found to be 44 nM.

For the compound `COc1c(F)cc(C(=O)N2CC[C@@]3(C)c4ccccc4C[C@@H]2C3(C)C)cc1F` [Example 331, (3,5-Difluoro-4-methoxy-phenyl)-[(2R,6S)-6,11,11-trimethyl-1,2,5,6-tetrahydro-4H-2,6-methano-benzo[d]azocin-3-yl]-methanone], under “11β-HSD IC50 (nM)”, half-maximal inhibition (IC50) required 439 nM.

Compound `Cc1nnc(-c2ccc3c(c2)[C@]2(C)CCN(C(=O)c4ccc5nc[nH]c5c4)[C@H](C3)[C@H]2C)o1` [Example 332, (3H-Benzoimidazol-5-yl)-[(2R,6R,11S)-6,11-dimethyl-8-(5-methyl-[1,3,4]oxadiazol-2-yl)-1,2,5,6-tetrahydro-4H-2,6-methano-benzo[d]azocin-3-yl]-methanone] gave an IC50 (11β-HSD IC50 (nM)) of 64 nM.

The compound `Cc1cnc(-c2nc3cc4c(cc3o2)[C@]2(C)CCN(C(=O)c3ccc5nc[nH]c5c3)[C@H](C4)[C@H]2C)cn1` [Example 333, (3H-Benzoimidazol-5-yl)-[(6R,10R,12S)-5,6,7,8,9,10-hexahydro-10,12-dimethyl-2-(5-methyl-pyrazin-2-yl)-6,10-methano-oxazolo[5,4-i][3]benzazocin-7-yl]-methanone] had an IC50 (11β-HSD IC50 (nM)) of 84 nM.

Compound `C[C@@H]1[C@H]2Cc3ccc(-c4nnco4)cc3[C@]1(C)CCN2C(=O)c1ccc2nc[nH]c2c1` [Example 334, (3H-Benzoimidazol-5-yl)-[(2R,6R,11S)-6,11 dimethyl-8-[1,3,4]oxadiazol-2-yl-1,2,5,6-tetrahydro-4H-2,6-methano-benzo[d]azocin 3-yl]-methanone] registered an IC50 (11β-HSD IC50 (nM)) of 104 nM.

`CC1(C)[C@H]2Cc3ccccc3[C@]1(C)CCN2C(=O)c1cc(F)c(O)c(F)c1` [Example 335, (3,5-Difluoro-4-hydroxy-phenyl)-[(2R,6S)-6,11,11-trimethyl-1,2,5,6-tetrahydro-4H-2,6-methano-benzo[d]azocin-3-yl]-methanone] displayed a 50% inhibitory concentration (IC50) (11β-HSD IC50 (nM)) of 115 nM.

In the case of `Cc1nnc(-c2ccc3c(c2)[C@]2(C)CCN(C(=O)c4ccc5nc[nH]c5c4)[C@H](C3)[C@H]2C)n1C` [Example 336, (3H-Benzoimidazol-5-yl)-[(2R,6R,11S)-8-(4,5-dimethyl-4H-[1,2,4]triazol-3-yl)-6,11-dimethyl-1,2,5,6-tetrahydro-4H-2,6-methano-benzo[d]azocin-3-yl]-methanone], under “11β-HSD IC50 (nM)”, the IC50 came to 198 nM.

Consider `CC1(C)[C@H]2Cc3cc4oc([C@H]5CCCO5)nc4cc3[C@]1(C)CCN2C(=O)c1ccc2nc[nH]c2c1` [Example 337, (3H-Benzoimidazol-5-yl)-[(6R,10S)-5,6,7,8,9,10-hexahydro-10,12,12-trimethyl-2-[(R)-tetrahydrofuran-2-yl]-6,10-methano-oxazolo[4,5-i][3]benzazocin-7-yl]-methanone], for which the half-inhibitory concentration (IC50) (11β-HSD IC50 (nM)) came to 52 nM.

The compound `CC1(C)[C@H]2Cc3cc4oc([C@@H]5CCCO5)nc4cc3[C@]1(C)CCN2C(=O)c1ccc2nc[nH]c2c1` [Example 338, (3H-Benzoimidazol-5-yl)-[(6R,10S)-5,6,7,8,9,10-hexahydro-10,12,12-trimethyl-2-[(S)-tetrahydrofuran-2-yl]-6,10-methano-oxazolo[4,5-i][3]benzazocin-7-yl]-methanone] returned a half-maximal inhibitory concentration (IC50) (11β-HSD IC50 (nM)) of 63 nM.

Compound `CC1(C)[C@H]2Cc3ccccc3[C@]1(C)CCN2C(=O)c1ccc(C(O)(C(F)(F)F)C(F)(F)F)cc1` [Example 339, [4-(2,2,2-Trifluoro-1-hydroxy-1-trifluoromethyl-ethyl)-phenyl]-[(2R,6S)-6,11,11-trimethyl-1,2,5,6-tetrahydro-4H-2,6-methano-benzo[d]azocin-3-yl]-methanone] had a concentration for half-maximal inhibition (IC50) (11β-HSD IC50 (nM)) of 1270 nM.

Where the note is “11β-HSD IC50 (nM)”, `C[C@@H]1[C@H]2Cc3ccc(C(C)(C)O)cc3[C@]1(C)CCN2C(=O)c1ccc2nc[nH]c2c1` [Example 340, (3H-Benzoimidazol-5-yl)-[(2R,6R,11S)-8-(1-hydroxy-1-methyl-ethyl)-6,11-dimethyl-1,2,5,6-tetrahydro-4H-2,6-methano-benzo[d]azocin-3-yl]-methanone] yielded an IC50 of 67 nM.

For `COC(=O)c1ccc2c(c1)[C@]1(C)CCN(C(=O)c3ccc4nc[nH]c4c3)[C@H](C2)[C@H]1C` [Example 341, (2R,6R,11S)-3-(3H-Benzoimidazole-5-carbonyl)-6,11-dimethyl-1,2,3,4,5,6-hexahydro-2,6-methano-benzo[d]azocine-8-carboxylic acid methyl ester], the 50% inhibitory concentration (IC50) (11β-HSD IC50 (nM)) amounted to 601 nM.

Regarding `CC1(C)[C@H]2Cc3ccccc3[C@]1(C)CCN2C(=O)c1ccc(S(N)(=O)=O)cc1` [Example 342, 4-[(2R,6S)-6,11,11-Trimethyl-1,2,5,6-tetrahydro-4H-2,6-methano-benzo[d]azocine-3-carbonyl]-benzenesulfonamide], the 50% inhibitory concentration (IC50) (11β-HSD IC50 (nM)) amounted to 373 nM.

Consider `CC1(C)[C@H]2Cc3ccccc3[C@]1(C)CCN2C(=O)c1cccc(S(N)(=O)=O)c1` [Example 343, 3-[(2R,6S)-6,11,11-Trimethyl-1,2,5,6-tetrahydro-4H-2,6-methano-benzo[d]azocine-3-carbonyl]-benzenesulfonamide], for which it took 1520 nM to reach half-maximal inhibition (11β-HSD IC50 (nM)) (IC50).

The compound `CC(O)(c1ccc2c(c1)[C@]1(C)CCN(C(=O)c3ccc4nc[nH]c4c3)[C@H](C2)C1(C)C)C(F)(F)F` (stereo partly drawn) [Example 344, (3H-Benzoimidazol-5-yl)-[(2R,6S)-6,11,11-trimethyl-8-(2,2,2-trifluoro-1-hydroxy-1-methyl-ethyl)-1,2,5,6-tetrahydro-4H-2,6-methano-benzo[d]azocin-3-yl]-methanone] returned an IC50 (11β-HSD IC50 (nM)) of 35 nM.

For the origin of these results see US8859580B2 (Boehringer Ingelheim International GmbH, priority 2007, dated 2014).
